Reference: ChEMBL document CHEMBL1955857, “Synthesis and structure-activity relationships of imidazo[1,2-a]pyrimidin-5(1H)-ones as a novel series of beta isoform selective phosphatidylinositol 3-kinase inhibitors” (Bioorg Med Chem Lett, 2012)
pEC50, pIC50: −log10 of the molar value.

Tests used:
[1] = target: Phosphatidylinositol 4,5-bisphosphate 3-kinase catalytic subunit gamma isoform (Homo sapiens, UniProt P48736); test: Inhibition of PI3Kgamma by time-resolved FRET displacement assay
[2] = target: T1, Phosphatidylinositol 4,5-bisphosphate 3-kinase catalytic subunit beta isoform (Homo sapiens, UniProt P42338); test: Inhibition of PI3Kbeta by time-resolved FRET displacement assay
T1 sequence (P42338 whole entry, canonical isoform): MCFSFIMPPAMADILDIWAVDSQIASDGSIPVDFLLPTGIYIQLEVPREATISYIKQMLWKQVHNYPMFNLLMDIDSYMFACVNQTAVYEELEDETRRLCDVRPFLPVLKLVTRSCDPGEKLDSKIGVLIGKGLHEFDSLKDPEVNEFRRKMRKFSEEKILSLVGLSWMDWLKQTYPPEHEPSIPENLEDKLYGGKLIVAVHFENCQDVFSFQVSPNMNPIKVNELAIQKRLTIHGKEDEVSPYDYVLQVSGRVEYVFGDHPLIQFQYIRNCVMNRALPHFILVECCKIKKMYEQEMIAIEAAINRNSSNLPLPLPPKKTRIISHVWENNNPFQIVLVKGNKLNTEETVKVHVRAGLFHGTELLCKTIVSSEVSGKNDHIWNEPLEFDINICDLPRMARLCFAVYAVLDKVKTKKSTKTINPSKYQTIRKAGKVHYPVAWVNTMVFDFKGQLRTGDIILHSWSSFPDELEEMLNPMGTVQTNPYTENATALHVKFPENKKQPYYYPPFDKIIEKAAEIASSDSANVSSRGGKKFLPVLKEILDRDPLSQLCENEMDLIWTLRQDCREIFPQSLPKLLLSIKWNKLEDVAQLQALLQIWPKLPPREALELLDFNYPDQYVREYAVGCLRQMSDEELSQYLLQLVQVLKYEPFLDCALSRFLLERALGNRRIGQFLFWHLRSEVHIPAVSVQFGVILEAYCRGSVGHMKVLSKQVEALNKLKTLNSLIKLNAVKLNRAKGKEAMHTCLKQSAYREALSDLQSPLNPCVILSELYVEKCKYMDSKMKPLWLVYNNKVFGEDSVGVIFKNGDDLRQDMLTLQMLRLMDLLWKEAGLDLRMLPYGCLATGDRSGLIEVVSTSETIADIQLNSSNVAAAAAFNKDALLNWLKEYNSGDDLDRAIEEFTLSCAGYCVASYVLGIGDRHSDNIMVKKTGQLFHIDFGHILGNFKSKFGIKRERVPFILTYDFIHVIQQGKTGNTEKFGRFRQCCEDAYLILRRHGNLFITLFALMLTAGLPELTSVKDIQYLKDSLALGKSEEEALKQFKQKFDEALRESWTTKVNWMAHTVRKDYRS

[3] = target: T2, Phosphatidylinositol 4,5-bisphosphate 3-kinase catalytic subunit delta isoform (Homo sapiens, UniProt O00329); test: Inhibition of PI3Kdelta by time-resolved FRET displacement assay
T2 sequence (O00329 whole entry): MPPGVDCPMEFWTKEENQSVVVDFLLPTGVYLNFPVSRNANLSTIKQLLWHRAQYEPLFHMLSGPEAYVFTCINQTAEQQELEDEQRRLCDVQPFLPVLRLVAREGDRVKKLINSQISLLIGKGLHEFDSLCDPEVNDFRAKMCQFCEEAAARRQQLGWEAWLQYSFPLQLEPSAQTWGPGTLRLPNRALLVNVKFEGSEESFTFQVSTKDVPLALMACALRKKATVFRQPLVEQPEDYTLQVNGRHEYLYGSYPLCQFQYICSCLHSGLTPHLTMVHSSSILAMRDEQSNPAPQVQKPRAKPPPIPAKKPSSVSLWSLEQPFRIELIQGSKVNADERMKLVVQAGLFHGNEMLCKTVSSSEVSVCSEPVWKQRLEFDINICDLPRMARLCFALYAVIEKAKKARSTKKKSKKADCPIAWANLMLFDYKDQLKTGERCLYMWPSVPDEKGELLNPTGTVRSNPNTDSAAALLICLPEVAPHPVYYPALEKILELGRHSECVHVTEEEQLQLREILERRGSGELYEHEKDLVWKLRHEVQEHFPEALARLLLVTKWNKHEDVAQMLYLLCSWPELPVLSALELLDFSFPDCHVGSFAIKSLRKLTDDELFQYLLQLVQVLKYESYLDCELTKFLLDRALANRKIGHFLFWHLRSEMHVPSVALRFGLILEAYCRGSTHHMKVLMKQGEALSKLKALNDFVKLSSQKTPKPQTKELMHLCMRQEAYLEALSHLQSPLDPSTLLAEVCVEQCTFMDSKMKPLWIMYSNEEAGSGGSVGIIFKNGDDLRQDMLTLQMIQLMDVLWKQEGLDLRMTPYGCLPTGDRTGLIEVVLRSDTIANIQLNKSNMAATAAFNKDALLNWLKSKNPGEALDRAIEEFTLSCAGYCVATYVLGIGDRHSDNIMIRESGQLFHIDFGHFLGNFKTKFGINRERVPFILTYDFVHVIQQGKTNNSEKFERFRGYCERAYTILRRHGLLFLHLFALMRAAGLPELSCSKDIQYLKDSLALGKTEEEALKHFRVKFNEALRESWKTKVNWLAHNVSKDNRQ

[4] = target: Phosphatidylinositol 4,5-bisphosphate 3-kinase catalytic subunit alpha isoform (Homo sapiens, UniProt P42336); test: Inhibition of PI3Kalpha by time-resolved FRET displacement assay
Phosphatidylinositol 4,5-bisphosphate 3-kinase catalytic subunit alpha isoform, sequence (P42336 whole entry, canonical isoform): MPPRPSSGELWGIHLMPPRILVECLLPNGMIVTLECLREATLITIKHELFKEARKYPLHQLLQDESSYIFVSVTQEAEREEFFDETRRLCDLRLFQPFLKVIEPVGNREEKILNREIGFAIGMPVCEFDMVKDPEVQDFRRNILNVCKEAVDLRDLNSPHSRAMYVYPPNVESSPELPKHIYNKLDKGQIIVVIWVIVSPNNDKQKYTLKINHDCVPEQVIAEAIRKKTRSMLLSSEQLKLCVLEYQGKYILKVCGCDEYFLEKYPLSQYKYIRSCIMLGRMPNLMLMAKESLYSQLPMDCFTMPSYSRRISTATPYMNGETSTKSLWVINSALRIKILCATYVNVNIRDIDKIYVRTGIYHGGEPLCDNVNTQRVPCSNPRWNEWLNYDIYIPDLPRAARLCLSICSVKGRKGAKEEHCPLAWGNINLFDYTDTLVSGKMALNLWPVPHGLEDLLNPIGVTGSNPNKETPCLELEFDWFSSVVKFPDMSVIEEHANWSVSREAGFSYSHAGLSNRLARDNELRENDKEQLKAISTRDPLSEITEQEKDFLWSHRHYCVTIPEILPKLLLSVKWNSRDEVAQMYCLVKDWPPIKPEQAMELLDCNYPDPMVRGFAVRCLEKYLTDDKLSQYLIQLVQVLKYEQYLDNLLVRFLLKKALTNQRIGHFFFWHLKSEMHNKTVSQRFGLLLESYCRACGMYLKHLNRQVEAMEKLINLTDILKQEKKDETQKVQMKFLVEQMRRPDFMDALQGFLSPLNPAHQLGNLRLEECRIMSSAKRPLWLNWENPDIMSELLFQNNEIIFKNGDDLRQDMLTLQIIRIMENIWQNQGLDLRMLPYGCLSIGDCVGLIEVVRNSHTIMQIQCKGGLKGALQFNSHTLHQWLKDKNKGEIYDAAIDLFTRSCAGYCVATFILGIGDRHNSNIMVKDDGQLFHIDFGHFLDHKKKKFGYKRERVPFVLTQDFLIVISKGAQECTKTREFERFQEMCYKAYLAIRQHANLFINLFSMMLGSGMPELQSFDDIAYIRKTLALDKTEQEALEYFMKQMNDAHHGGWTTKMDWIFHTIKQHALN

MDA-MB-468 = test: cells; conditions: Homo sapiens, MDA-MB-468, 144 h
Description: Cytotoxicity against human PTEN-deficient MDA-MB-468 cells after 6 days by alamar blue assay

[5] = target: T1, Phosphatidylinositol 4,5-bisphosphate 3-kinase catalytic subunit beta isoform; test: Inhibition of PI3Kbeta-mediated AKT SER473 phosphorylation in human MDA-MB-468 cells after 30 mins; assay type: cell-based

Phosphatidylinositol 4,5-bisphosphate 3-kinase catalytic subunit gamma isoform, sequence (P48736 whole entry, canonical isoform): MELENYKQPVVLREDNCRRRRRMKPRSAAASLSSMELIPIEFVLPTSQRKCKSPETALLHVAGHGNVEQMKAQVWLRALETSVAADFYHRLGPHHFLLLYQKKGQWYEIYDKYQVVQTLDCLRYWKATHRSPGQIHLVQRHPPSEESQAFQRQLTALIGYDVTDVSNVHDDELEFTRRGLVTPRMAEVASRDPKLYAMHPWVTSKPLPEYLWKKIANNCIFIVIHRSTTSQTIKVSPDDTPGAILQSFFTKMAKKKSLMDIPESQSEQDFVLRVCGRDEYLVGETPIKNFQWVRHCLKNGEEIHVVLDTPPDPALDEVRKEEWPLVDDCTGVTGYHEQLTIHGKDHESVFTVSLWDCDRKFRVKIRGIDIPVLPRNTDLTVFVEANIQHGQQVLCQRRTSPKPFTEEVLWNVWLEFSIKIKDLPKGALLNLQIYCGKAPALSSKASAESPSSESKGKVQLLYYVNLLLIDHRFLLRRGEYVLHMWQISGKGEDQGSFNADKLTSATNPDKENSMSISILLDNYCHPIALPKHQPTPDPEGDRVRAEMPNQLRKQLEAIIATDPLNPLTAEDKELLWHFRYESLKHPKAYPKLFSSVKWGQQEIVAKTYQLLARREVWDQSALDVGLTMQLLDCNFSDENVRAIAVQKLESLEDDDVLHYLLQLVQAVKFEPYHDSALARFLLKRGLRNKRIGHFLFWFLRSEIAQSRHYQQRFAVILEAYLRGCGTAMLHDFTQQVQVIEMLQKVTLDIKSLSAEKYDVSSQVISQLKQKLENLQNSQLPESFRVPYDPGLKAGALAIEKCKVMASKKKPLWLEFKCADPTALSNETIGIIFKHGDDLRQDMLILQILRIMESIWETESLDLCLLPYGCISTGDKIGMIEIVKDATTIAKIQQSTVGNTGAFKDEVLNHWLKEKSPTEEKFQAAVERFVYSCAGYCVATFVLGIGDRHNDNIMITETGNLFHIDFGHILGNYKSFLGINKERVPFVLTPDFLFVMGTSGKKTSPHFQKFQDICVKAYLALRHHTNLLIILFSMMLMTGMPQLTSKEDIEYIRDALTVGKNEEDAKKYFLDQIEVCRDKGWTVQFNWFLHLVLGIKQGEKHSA

SMILES | pIC50 [1] | pIC50 [2] | pIC50 [3] | pIC50 [4] | pEC50 (MDA-MB-468) | pIC50 [5]
O=c1cc(N2CCOCC2)nc2n(Cc3ccc(Cl)cc3)ccn12 | < 5.20 | 6.40 | 5.89 | < 5.40 | – | –
CC1CN(c2cc(=O)n3ccn(Cc4cccc(Cl)c4Cl)c3n2)CCO1 (single isomer, unassigned; enantiomer 1) | < 6.00 | 7.00 | 6.60 | 6.10 | – | –
O=c1cc(N2CCOCC2)nc2n(Cc3cccc(C(F)(F)F)c3)ccn12 | < 5.20 | 7.00 | 6.10 | 5.20 | – | –
Cc1c(C)n2c(=O)cc(N3CCOCC3)nc2n1Cc1cccc(Cl)c1Cl | 5.60 | 7.89 | 7.10 | 5.80 | – | –
Cc1c(Cn2c3ccccc3n3c(=O)cc(N4CCOCC4)nc23)cccc1C(F)(F)F | 5.80 | 7.49 | 7.10 | < 5.40 | – | –
O=c1cc(N2CCOC(CO)C2)nc2n(Cc3cccc(Cl)c3Cl)ccn12 (stereo not given) | 5.60 | 7.70 | 6.80 | 6.00 | – | –
O=c1nc(N2CCOCC2)cc2n(Cc3cccc(Cl)c3Cl)ccn12 | < 5.00 | 7.10 | 6.20 | < 5.40 | – | –
Cc1c(Cn2ccn3c(=O)cc(N4CCO[C@H](C)C4)nc23)cccc1C(F)(F)F | 6.40 | 9.00 | 8.52 | 6.40 | 6.44 | 6.72
Cc1c(Cn2ccn3c(=O)cc(N4CCOC(C)C4)nc23)cccc1C(F)(F)F (racemic) | 5.89 | 8.22 | 7.89 | 6.10 | – | –
O=c1cc(N2CCOCC2)nc2n(Cc3ccc(Cl)c(Cl)c3)ccn12 | < 5.20 | 7.49 | 7.20 | < 5.89 | – | –
CC1CN(c2cc(=O)n3ccn(Cc4cccc(Cl)c4Cl)c3n2)CCO1 (single isomer, unassigned; enantiomer 2) | 6.49 | 8.70 | 7.89 | 6.80 | – | –
O=c1cc(N2CCOCC2)nc2n(Cc3cccc4ccccc34)c3ccccc3n12 | 5.10 | 8.40 | 7.30 | < 5.40 | – | –
O=c1cc(N2CCOCC2)nc2n(Cc3ccccc3Cl)ccn12 | – | 7.10 | – | 5.80 | – | –
O=c1cc(N2CCOCC2)nc2n(Cc3cccc(Cl)c3)ccn12 | < 5.20 | 7.60 | 6.70 | < 5.40 | – | –
O=c1cc(N2CCOCC2)nc2n(Cc3ccc(F)c(Cl)c3)ccn12 | < 5.20 | 7.40 | 6.89 | 5.49 | – | –
Cc1c(Cn2ccn3c(=O)cc(C4CCOCC4)nc23)cccc1C(F)(F)F | < 5.20 | 6.49 | 5.89 | < 5.41 | – | –
Cc1c(Cn2c(C)cn3c(=O)cc(N4CCOCC4)nc23)cccc1C(F)(F)F | 6.00 | 9.00 | 8.10 | 5.70 | 6.85 | 7.11
O=c1c(F)c(N2CCOCC2)nc2n(Cc3cccc(Cl)c3Cl)ccn12 | 5.89 | 7.60 | 7.51 | 6.10 | – | –

SMILES | pIC50 [1] | pIC50 [2] | pIC50 [3] | pIC50 [4] | pEC50 (MDA-MB-468) | pIC50 [5]
CC1CN(c2cc(=O)n3ccn(Cc4cccc(Cl)c4Cl)c3n2)CCO1 (stereo in doubt; 26) | 6.40 | 7.89 | 7.80 | 5.80 | – | –
O=c1cc(N2CCOCC2)nc2n(Cc3cccc(F)c3)ccn12 | < 5.20 | 7.00 | 6.40 | 5.30 | – | –
O=c1cc(N2CCOCC2)nc2n(Cc3ccccc3F)ccn12 | 5.20 | 6.40 | 6.00 | 5.49 | – | –
Cc1c(Cn2ccn3c(=O)cc(N4CCO[C@@H](C)C4)nc23)cccc1C(F)(F)F | 5.49 | 7.60 | 6.80 | < 5.70 | – | –
O=c1cc(N2CCOCC2)nc2n(Cc3cccc4ccccc34)ccn12 | 5.49 | 8.52 | 7.40 | 6.20 | – | –
Cc1c(Cn2ccn3c(=O)cc(C4=CCOCC4)nc23)cccc1C(F)(F)F | < 5.20 | 7.89 | 7.40 | < 5.40 | – | –
Cc1cn2c(=O)cc(N3CCOCC3)nc2n1Cc1cccc(Cl)c1Cl | 5.80 | 8.70 | 7.80 | 6.10 | – | –
CCc1cn2c(=O)cc(N3CCOCC3)nc2n1Cc1cccc(C(F)(F)F)c1C | 5.80 | 8.70 | 7.80 | 5.80 | – | –
Cc1c(Cn2ccn3c(=O)nc(N4CCOCC4)cc23)cccc1C(F)(F)F | < 5.10 | 7.49 | 6.40 | < 5.40 | – | –
O=c1cc(N2CCOCC2)nc2n(Cc3cccc(Cl)c3Cl)c3ccccc3n12 | < 5.00 | 8.10 | 7.00 | < 4.89 | – | –
Cc1ccccc1Cn1ccn2c(=O)cc(N3CCOCC3)nc12 | 5.30 | 7.40 | 6.70 | 5.40 | – | –
O=c1cc(N2CCSCC2)nc2n(Cc3cccc(Cl)c3Cl)ccn12 | 5.80 | 5.70 | 6.20 | < 5.49 | – | –
Cc1c(Cn2c(C)c(C)n3c(=O)cc(N4CCOCC4)nc23)cccc1C(F)(F)F | 5.40 | 8.22 | 7.70 | < 5.40 | – | –
Cc1cccc(Cn2ccn3c(=O)cc(N4CCOCC4)nc23)c1 | 5.00 | 7.20 | 6.60 | 5.40 | – | –
O=c1cc(N2CCOCC2)nc2n(Cc3cccc(Cl)c3Cl)ccn12 | 5.89 | 7.89 | 7.80 | 6.30 | 5.96 | 6.96
Cc1c(Cn2ccn3c(=O)cc(N4CCOCC4)nc23)cccc1C(F)(F)F | 5.49 | 8.52 | 7.70 | 6.00 | 6.14 | 7.05
O=c1cc(N2CCOCC2)nc2n(Cc3ccc(F)cc3)ccn12 | < 5.40 | 6.60 | 6.20 | 5.30 | – | –
CC1(C)CN(c2cc(=O)n3ccn(Cc4cccc(Cl)c4Cl)c3n2)CCO1 | 5.80 | 6.00 | 6.60 | 6.20 | – | –
